Laboratory results: ChEMBL document CHEMBL1201862, “PubChem BioAssay data set” (2004)
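Five compound concentrations were applied to cells in 96-well plates for 48 hours; endpoints were derived by simple linear interpolation of the resulting dose-response curve. GI50 is the concentration that inhibits growth by half.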 Active and inactive are the calls of the source. Rule as the data show it: active = GI50 up to about 1.1 µM and inactive = higher.

Tests used:
Experiment in all cases: inhibition of tumour cell growth, NCI panel, 48 h
CAKI-1 = test system: CAKI-1
HL-60 = test system: HL-60
K562 = test system: K562
KM12 = test system: KM12
LOX IMVI = test system: LOX IMVI
M14 = test system: M14
MDA-MB-231 = test system: MDA-MB-231
MDA-MB-435 = test system: MDA-MB-435
MDA-N = test system: MDA-N
NCI-H460 = test system: NCI-H460
OVCAR-3 = test system: OVCAR-3
RPMI-8226 = test system: RPMI-8226
RXF 393 = test system: RXF 393
SF-539 = test system: SF-539
SK-MEL-28 = test system: SK-MEL-28
SK-MEL-2 = test system: SK-MEL-2
U-251 = test system: U-251
UACC-257 = test system: UACC-257
UACC-62 = test system: UACC-62
UO-31 = test system: UO-31

Row | SMILES | GI50 (CAKI-1) | GI50 (HL-60) | GI50 (K562) | GI50 (KM12) | GI50 (LOX IMVI) | GI50 (M14) | GI50 (MDA-MB-231) | GI50 (MDA-MB-435) | GI50 (MDA-N) | GI50 (NCI-H460) | GI50 (OVCAR-3) | GI50 (RPMI-8226) | GI50 (RXF 393) | GI50 (SF-539) | GI50 (SK-MEL-28) | GI50 (SK-MEL-2) | GI50 (U-251) | GI50 (UACC-257) | GI50 (UACC-62) | GI50 (UO-31)
1 | Cn1c(Sc2ccc(-c3cccnc3)n2C)ccc1-c1cccnc1 | 19.1 µM (inactive) | 2.39 µM (inactive) | 3.12 µM (inactive) | 18 µM (inactive) | 3.73 µM (inactive) | 17.1 µM (inactive) | 18.2 µM (inactive) | 13.4 µM (inactive) | 8.57 µM (inactive) | 15.2 µM (inactive) | 11.3 µM (inactive) | 6.65 µM (inactive) | 18.5 µM (inactive) | 20.7 µM (inactive) | 10.3 µM (inactive) | 14.2 µM (inactive) | 13.1 µM (inactive) | 12.4 µM (inactive) | 14.9 µM (inactive) | 17.5 µM (inactive)
2 | N=C(N)SCc1ccc(Cl)c2ccccc12.O=[N+]([O-])c1c(O)c(Cl)cc(Cl)c1Cl | 5.57 µM (inactive) | 4.38 µM (inactive) | 4.66 µM (inactive) | 13.6 µM (inactive) | 14.4 µM (inactive) | 10.3 µM (inactive) | 8.22 µM (inactive) | 8.38 µM (inactive) | 11.1 µM (inactive) | 8.32 µM (inactive) | 9.18 µM (inactive) | 2.64 µM (inactive) | 7.23 µM (inactive) | 8.65 µM (inactive) | 14.1 µM (inactive) | 8.95 µM (inactive) | 12.9 µM (inactive) | 4.72 µM (inactive) | 13.5 µM (inactive) | 9.98 µM (inactive)
3 | C=C(C)c1nc(Oc2ccccc2)nc(Oc2ccccc2)n1 | 2.06 µM (inactive) | 2.06 µM (inactive) | 2.23 µM (inactive) | 3.09 µM (inactive) | 2.08 µM (inactive) | 5.42 µM (inactive) | 14.1 µM (inactive) | 10.3 µM (inactive) | 3.5 µM (inactive) | 9.04 µM (inactive) | 6.04 µM (inactive) | 1.57 µM (inactive) | 2.4 µM (inactive) | 6.37 µM (inactive) | 3.86 µM (inactive) | 2.21 µM (inactive) | 10.6 µM (inactive) | 9.55 µM (inactive) | 5.78 µM (inactive) | 17.6 µM (inactive)
4 | C=C(C(=O)OC1C(CO)OC(OCC2CC[C@@H]3C[C@]4(OC(=O)C3=C)C(C)=CC(=O)C24)C(O)C1O)[C@@H]1CCC(CO)C2C(=O)C=C(C)[C@@]2(O)C1 (stereo partly drawn) | 1.36 µM (inactive) | 0.592 µM (active) | 0.783 µM (active) | 2.55 µM (inactive) | 2.18 µM (inactive) | 2.08 µM (inactive) | 1.64 µM (inactive) | 2.09 µM (inactive) | 1.44 µM (inactive) | 3.3 µM (inactive) | 2.02 µM (inactive) | 0.356 µM (active) | 0.757 µM (active) | 0.482 µM (active) | 3.34 µM (inactive) | 2.47 µM (inactive) | 4.68 µM (inactive) | 1.84 µM (inactive) | 1.62 µM (inactive) | 1.76 µM (inactive)
5 | OCCN(CCO)CCn1cnc2c(NCc3ccccc3)ncnc21 | > 100 µM (inactive) | > 100 µM (inactive) | > 100 µM (inactive) | > 100 µM (inactive) | > 100 µM (inactive) | > 100 µM (inactive) | > 100 µM (inactive) | > 100 µM (inactive) | > 100 µM (inactive) | > 100 µM (inactive) | > 100 µM (inactive) | > 100 µM (inactive) | > 100 µM (inactive) | > 100 µM (inactive) | > 100 µM (inactive) | > 100 µM (inactive) | > 100 µM (inactive) | > 100 µM (inactive) | > 100 µM (inactive) | > 100 µM (inactive)
6 | COC(=O)[C@@H]1C[C@@]23CCCN4CC[C@@]5(c6cccc(OC)c6N(C=O)[C@]15CC2)[C@@H]43 | > 100 µM (inactive) | > 100 µM (inactive) | – | > 100 µM (inactive) | > 100 µM (inactive) | > 100 µM (inactive) | > 100 µM (inactive) | > 100 µM (inactive) | > 100 µM (inactive) | > 100 µM (inactive) | > 100 µM (inactive) | > 100 µM (inactive) | > 100 µM (inactive) | > 100 µM (inactive) | > 100 µM (inactive) | > 100 µM (inactive) | > 100 µM (inactive) | > 100 µM (inactive) | > 100 µM (inactive) | > 100 µM (inactive)
7 | CN(CCNC(=O)c1cn(C)c2c1ccc1cc(Cl)c(Cl)cc12)CCNC(=O)c1cn(C)c2c1ccc1cc(Cl)c(Cl)cc12 | 3.84 µM (inactive) | 1.32 µM (inactive) | 0.535 µM (active) | 1.75 µM (inactive) | 1.74 µM (inactive) | 1.75 µM (inactive) | 1.75 µM (inactive) | 1.77 µM (inactive) | 2.29 µM (inactive) | 1.9 µM (inactive) | 2.18 µM (inactive) | 2.65 µM (inactive) | 1.42 µM (inactive) | 2.61 µM (inactive) | 1.73 µM (inactive) | 1.84 µM (inactive) | 1.77 µM (inactive) | 2.41 µM (inactive) | 1.95 µM (inactive) | 1.72 µM (inactive)
8 | CN(C)c1ccc(/N=N/c2ccccn2)cc1 | 32.2 µM (inactive) | 4.26 µM (inactive) | 4.61 µM (inactive) | 43.1 µM (inactive) | 57.5 µM (inactive) | 9.82 µM (inactive) | 20.8 µM (inactive) | 23.4 µM (inactive) | 33.7 µM (inactive) | 28.8 µM (inactive) | 4.21 µM (inactive) | 11.3 µM (inactive) | > 100 µM (inactive) | 52.2 µM (inactive) | > 100 µM (inactive) | 55.1 µM (inactive) | 4.66 µM (inactive) | 3.89 µM (inactive) | 33.4 µM (inactive) | 24.1 µM (inactive)
9 | CCCCN1C(=O)CC2[C@@H]3CCc4cc(OC(C)=O)ccc4C3CC[C@]2(C)C1=O (stereo partly drawn) | > 10 µM (inactive) | 9.42 µM (inactive) | > 10 µM (inactive) | > 10 µM (inactive) | > 10 µM (inactive) | > 10 µM (inactive) | > 10 µM (inactive) | > 10 µM (inactive) | > 10 µM (inactive) | > 10 µM (inactive) | > 10 µM (inactive) | > 10 µM (inactive) | > 10 µM (inactive) | > 10 µM (inactive) | > 10 µM (inactive) | > 10 µM (inactive) | > 10 µM (inactive) | > 10 µM (inactive) | > 10 µM (inactive) | > 10 µM (inactive)
10 | O=C1c2cc3c(cc2CC1Br)CCC3 (stereo not drawn) | 1.71 µM (inactive) | 2.9 µM (inactive) | 1.39 µM (inactive) | 7 µM (inactive) | 0.369 µM (active) | 1.45 µM (inactive) | 4.47 µM (inactive) | 1.99 µM (inactive) | 1.82 µM (inactive) | 12.1 µM (inactive) | 2.03 µM (inactive) | 1.82 µM (inactive) | 1.83 µM (inactive) | 2.03 µM (inactive) | 3.1 µM (inactive) | 1.98 µM (inactive) | 3.26 µM (inactive) | 2.23 µM (inactive) | 3.3 µM (inactive) | 10.6 µM (inactive)
11 | O/N=C(\CC(O)(C(F)(F)F)C(F)(F)F)c1cccc(Cl)c1 | 21.5 µM (inactive) | 23.5 µM (inactive) | 30.2 µM (inactive) | 34.8 µM (inactive) | 23 µM (inactive) | 22.8 µM (inactive) | 22.5 µM (inactive) | 25.8 µM (inactive) | 37.3 µM (inactive) | 43.3 µM (inactive) | 19.8 µM (inactive) | 29.9 µM (inactive) | 15.6 µM (inactive) | 28.6 µM (inactive) | 41.1 µM (inactive) | 22.7 µM (inactive) | 20.2 µM (inactive) | 35.6 µM (inactive) | 38.9 µM (inactive) | –
12 | O=C1/C(=C/c2ccc(Cl)cc2)CCC1CN1CCOCC1 (stereo not drawn) | 4.37 µM (inactive) | 0.836 µM (active) | 1.86 µM (inactive) | 3.33 µM (inactive) | 2.28 µM (inactive) | 5.48 µM (inactive) | 3.83 µM (inactive) | 4.6 µM (inactive) | 6.46 µM (inactive) | 14.9 µM (inactive) | 6.37 µM (inactive) | 0.818 µM (active) | 3.76 µM (inactive) | 10.6 µM (inactive) | 8 µM (inactive) | 16.5 µM (inactive) | 15.9 µM (inactive) | 8.73 µM (inactive) | 5.51 µM (inactive) | 9.08 µM (inactive)
13 | CC(=O)OCC1=C(C(=O)O)N2C(=O)C(NC(=O)CSc3ccncc3)C2SC1 (stereo not drawn) | > 100 µM (inactive) | > 100 µM (inactive) | > 100 µM (inactive) | > 100 µM (inactive) | > 100 µM (inactive) | > 100 µM (inactive) | > 100 µM (inactive) | > 100 µM (inactive) | > 100 µM (inactive) | > 100 µM (inactive) | > 100 µM (inactive) | > 100 µM (inactive) | > 100 µM (inactive) | > 100 µM (inactive) | > 100 µM (inactive) | > 100 µM (inactive) | > 100 µM (inactive) | > 100 µM (inactive) | > 100 µM (inactive) | > 100 µM (inactive)
14 | CNC=O | > 10000 µM (inactive) | > 10000 µM (inactive) | > 10000 µM (inactive) | > 10000 µM (inactive) | > 9180 µM (inactive) | > 10000 µM (inactive) | > 10000 µM (inactive) | > 10000 µM (inactive) | > 10000 µM (inactive) | > 10000 µM (inactive) | > 9310 µM (inactive) | > 10000 µM (inactive) | > 10000 µM (inactive) | > 10000 µM (inactive) | > 10000 µM (inactive) | > 10000 µM (inactive) | 9930 µM (inactive) | > 10000 µM (inactive) | > 8090 µM (inactive) | > 10000 µM (inactive)
